Experimental data: patent US20100099698A1, “Compositions for Improving Skin Conditions Comprising Matrine or Its Oxidized Derivatives” (Biospectrum Inc., priority 2007, published 2010)

Legend:
collagenase (MMP-1) = target: T1, collagenase (MMP-1) (Homo sapiens, UniProt P03956); assay: Collagenase activity, Type 1 collagenase assay kit, PMA-induced; assay type: cell-based
T1 construct: Following incubation, the cell medium was collected and was used as samples; endogenous in cells; host or cells: human fibroblasts (PMA-induced)
T1 sequence (P03956 100-469): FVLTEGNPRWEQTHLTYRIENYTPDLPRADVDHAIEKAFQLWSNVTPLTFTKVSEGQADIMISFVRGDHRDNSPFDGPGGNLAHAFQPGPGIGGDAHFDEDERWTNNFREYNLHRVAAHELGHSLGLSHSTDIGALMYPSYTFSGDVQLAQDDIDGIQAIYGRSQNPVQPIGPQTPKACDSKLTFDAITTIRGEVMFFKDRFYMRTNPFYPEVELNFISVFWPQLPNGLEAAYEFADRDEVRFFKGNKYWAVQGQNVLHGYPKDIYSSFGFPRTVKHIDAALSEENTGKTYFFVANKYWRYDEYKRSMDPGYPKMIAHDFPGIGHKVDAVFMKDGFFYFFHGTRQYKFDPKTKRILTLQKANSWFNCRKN
Description: Human fibroblasts (commercially available from pacific) were seeded into a 6-well plate (2×10^5 cells/well) and the well plate was incubated in a 5% CO2 incubator for 24 hr at 37° C. After 24 hr, the medium in each well was removed and samples were treated with various concentrations, followed by incubating again for 24 hr. Following incubation, the cell medium was collected and was used as samples. To measure cytotoxicity of samples to fibroblasts, MIT reagent (1 mg/ml) was added to each well in 1/10 fold volume of the remaining medium, incubated for 3 hr and the medium was eliminated. The medium was dissolved in DMSO and its absorbance at 540 nm was measured.
As a method of measuring the activity of collagenase, an enzyme that decomposes collagen, an antibody against collagenase was used. As material inducing collagenase activity, PMA (phorbol myristate acetate, Sigma) was treated. For measuring collagenase activity, a Type 1 collagenase assay kit (Amersham Biosciences, RPN2629) was used, and the absorbance was measured using an ELISA reader (Bio-Tek ELx808™ Series Ultra Microplate Reader, U.K). The measured average values were represented as mean±standard deviation.

COX (cyclooxygenase) = assay: COX inhibitory ability in LPS-treated THP-1 cells, [1-14C] arachidonic acid, TLC; assay type: cell-based, human; settings: LPS alone = 100
Description: To determine whether matrine and oxymatrine had anti-inflammatory effects, the experiment of COX (cyclooxygenase) inhibitory ability was carried out using human monocytic cell, THP-1 cell (Korean Cell Line Bank) according to conventional method. […] J. Van de Ouderaaa and Muytenhek. THP-1 cell line was cultivated and aliquoted into 24-well plate. The incubation volume per well was adjusted to 500 μl, 2 μl of the sample compound, which dissolved in […] (1 μg/ml, Sigma) and solvents described in the following Table 9 respectively, was added and cultivated for 24-48 hr under the same condition. After 24-48 hr, calcium ionophore (Sigma) and [1-14C] arachidonic acid 1 μl (in EtOH, 0.1 μCi/ml, Sigma) were added to each well, and cultivated for 10 min under the same condition. Following the cultivation, citric acid was added to each well for adjusting to pH 3.5, shaked, each 500 μl of cultivation solution taken from the plate was aliquoted into micro centrifuge tube, 700 μl of ethylacetate was added to thereto, and the solution was shaking extracted for 10 min. 500 μl of ethylacetate layer was concentrated using speed vacuum dryer for 20 min, 20 μl of the residual was dissolved in ethylacetate, and the resultant was employed with authentic standard in TLC plate. The radioactive band was identified by authentic eicosanoid standards, the radioactivity of the identified band was measured using BAS 2000 bio-imaging analyzer (Fuji, JP) (Table 9).

pigmentation of skin = assay: Skin whitening of UV-induced pigmentation, chromameter L* value; assay type: in vivo, brown guinea pigs; settings: for Whitening effects (ΔL): topical once or twice a day for 50 days, UV-pigmented abdominal skin
Description: A whitening effect of matrine and oxymatrine was measured using brown guinea pigs (Charles River Laboratories, Inc.), known to increase its pigmentation upon exposure to ultraviolet light, like in humans. To cause pigmentation in the brown guinea pig by ultraviolet (UV), aluminum foil with square windows of 3×3 cm^2 was adhered to hair-removed abdominal skin of brown guinea pig, and then UV light was irradiated thereon with a SE lamp (wavelength 290-320 nm, Toshiba) (total irradiation energy=1350 mJ/cm^2). After UV irradiation, the aluminum foil was removed and samples (matrine, oxymatrine or albutin) were applied as the following method. […] From the maximum, samples were applied. Applications performed once or twice a day for 50 days. […] The control with only the solvent was applied to another site. Occurrence of cumulative irritation also was examined. The degree of pigmentation of skin was determined using a chromameter (CR2002, MINOLTA, JP) to estimate the effects of applied samples. L*a*b* colorimetric system was used to classify color and L* value was used as standard in the present invention. The L* value was corrected using white board standard and was measured more than five times at one site, repeatedly. Pigmentation was evenly distributed. Skin color differences (ΔL*) between application initial point and application terminal point were obtained and then using these values, their effects of the applied samples were estimated. ΔL*=L* value at […] after application-L* value at application initial day. Equation 1 ΔL* values were obtained both at sample application site and control application site and compared, whereby the effects of the whitening substances can be estimated.

Compound | inhibition at 1 µM (collagenase (MMP-1)) [%] | inhibition at 10 µM (collagenase (MMP-1)) [%] | inhibition at 50 µM (collagenase (MMP-1)) [%] | COX activities (%) (COX (cyclooxygenase); 10 uM with LPS (1 μg/ml)) | COX activities (%) (COX (cyclooxygenase); 100 uM with LPS (1 μg/ml)) | COX activities (%) (COX (cyclooxygenase); 500 uM with LPS (1 μg/ml)) | Whitening effects (ΔL) (pigmentation of skin; 0.2 %) | Whitening effects (ΔL) (pigmentation of skin; 1.0 %) | Occurrence of cumulative irritation (pigmentation of skin; brown guinea pig skin, application for 50 days)
O=C1CCC[C@@H]2[C@H]3CCCN4CCC[C@@H](CN12)[C@@H]34 [Matrine, matrine] | 19 | 20 | 32 | 98 | 87 | 65 | 0.38 | 0.53 | not observing the occurrence of cumulative irritation
O=C1CCC[C@@H]2[C@H]3CCC[N+]4([O-])CCC[C@@H](CN12)[C@@H]34 (some centres unmarked) [Oxymatrine, oxymatrine] | 6 | 13 | 17 | 94 | 81 | 71 | 0.24 | 0.50 | 
